Laboratory results from patent US20090186000A1, “USE OF THYMOSIN ALPHA 1 FOR PREPARING A MEDICAMENT FOR THE TREATMENT OF STAGE IV MALIGNANT MELANOMA” (SIGMA-TAU INDUSTRIE FARMACEUTICHE RIUNITE S.P.A., priority 2006, published 2009).
Ends that are not written are not given here.

What was measured:
lymphosarcoma cells = conditions: BALB/c mice; cited from earlier work
[1] = tested on: human non-small cell lung cancer (NSCLC) cells; conditions: subcutaneous, 1 or 10 mg per day; nude mice inoculated with human NSCLC cells; cited from earlier work
[2] = tested on: stage IV melanoma characterized by distant unresectable metastases; experiment: Phase II clinical trial, tumor response by RECIST criteria; format: in vivo, human; conditions: preliminary analysis on 142 patients; higher doses of Tα1
Protocol: Trial Design phase II, randomized, stratified, open-study testing different doses of Tα1 in association with DTIC and IFNα, as first line therapy for stage IV melanoma patients characterized by distant unresectable metastases (AJCC; Journal of Clinical Oncology 2001, 19: 3635-3648) without brain metastases. The primary study end-point was tumor response, and the following combination composition were used: • DTIC (800 mg/m^2)+IFNα (3 MIU)+Tα1 (1.6 mg) (97 pts); • DTIC (800 mg/m^2)+IFNα (3 MIU)+Tα1 (3.2 mg) (97 pts); • DTIC (800 mg/m^2)+Tα1 (3.2 mg) (98 pts); • DTIC (800 mg/m^2)+IFNα (3 MIU) (94 pts);
The five groups were analyzed independently one another within the so-called “pick the winner” strategy.
Methods: Recycling every 28 days, patients were administered DTIC (800 mg/m^2) i.v. at day 1, Tα1 (1.6, 3.2 or 6.4 mg) s.c. at days 8-11 and 15-18, and IFNα (3 MIU) s.c. at day 11 and 18. Clinical response was evaluated every two cycles according to RECIST criteria (New Guidelines to Evaluate the Response to Treatment in Solid Tumors; Journal of the National Cancer Institute, 2000. 92: 205-216) utilizing a central reader.
The randomized patients were stratified according to the disease site: M1a, M1b or M1c level.
1) Patients with cutaneous, subcutaneous and/or limphnodal metastases with normal serum LDH value (from 96 to 460 U/L) were classified as M1a. […]

metastatic melanoma = conditions: cited from earlier work
[3] = DTIC alone, metastatic melanoma

Compound | liver and lung metastases (lymphosarcoma cells) | local sarcoma growth (lymphosarcoma cells) | tumor volume [1] | dose-response effect on tumor response [2] | actual overall responses (metastatic melanoma; DTIC alone, metastatic melanoma, J Clin Oncol and ASCO proceedings 2004) | duration of responses (short-lived) (metastatic melanoma; [3]) | effect of responses on patients' overall survival (metastatic melanoma; [3]) | DTIC efficacy (metastatic melanoma; literature population similar to 16% M1a, 25% M1b, 59% M1c)
thymosin alpha 1 (SDAAVDTSSEITTKDLKEKKEVVEEAEN; ends and bridges not checked; UniProt P06454 2-29, looked up) [a compound well known in the medical field] | significantly reduced | significantly reduced | significantly decreased | clear dose-response effect | – | – | – | –
CN(C)/N=N/c1[nH]cnc1C(N)=O [DTIC, Dacarbazine] | – | – | – | – | 5.5-6.8% | three to six | no evidence that these responses have any effect on the patients' overall survival | 5%
